These molecules were tested on LS513 KRAS G12V (colon) (assay: MTT assay). Conditions: Homo sapiens, LS-513, 72 h, Table 4; 3 days incubation; read-out: MTT assay IC50 KRAS mutant (Colon) LS513 KRAS G12V.
Assay type: cell-based
Experimental: MTT assay is frequently used for the purpose of primary screening for the sensitivity of anticancer agents and to examine cytotoxicity. When cancer cells are treated with varying concentrations of any anticancer agent for a predetermined time to induce death of the cells and are then treated with MTT, and when the formation of formazan is measured, the concentration of the anticancer agent, at which about 50% of the cells survive, can be determined. This concentration value is called IC50. IC50 values differ between drugs, and thus can be characteristic of the drugs. Using this method, the effects of anticancer agents against cell proliferation can be quantitatively compared. Thus, in order to measure the cytotoxicity of samples, MTT assay was performed using CellTiter 96 Non-radioactive Cell Proliferation Assay Kit (Promega).
Cells in a cell suspension were counted with a hematocytometer, and then 200 μL of the cell suspension was added to each well of a 96 well plate at a desired concentration (cell amount determined depending on a cell line). After cell seeding, the cells were incubated in a CO2 incubator at 37° C. overnight. After one day of cell stabilization, the cells were treated with desired concentrations of the compounds. The cells were incubated in a CO2 incubator at 37° C. for 3 days, and then the sample was removed, and 200 μL of MTT solution was added to each well. After 2 hours of incubation, the MTT dilution was carefully shaken, and 200 μL of DMSO was added to each well, followed by shaking with a plate shaker for 60 minutes.

Compared with O=C(Nc1cc(Nc2ncccc2-c2ncnc3[nH]cnc23)c(F)cc1F)c1cccc(C(F)(F)F)c1 [Example 31, N-(5-(3-(9H-Purin-6-Yl)Pyridin-2-Ylamino)-2,4-Difluorophenyl)-3-(Trifluoromethyl)Benzamide], O=C(Nc1c(F)ccc(Nc2ncccc2-c2ncnc3[nH]cnc23)c1F)c1cccc(C(F)(F)F)c1 [Example 72, N-2,6-Difluoro-3-[3-(9H-Purin-6-Yl)Pyridin-2-Ylamino)Phenyl-3-Trifluoromethylbenzamide] is lower in IC50: greater than 10000 nM for the first, 1270 nM for the second.

First: O=C(Nc1ccc(Cl)c(C(F)(F)F)c1)Nc1cc(Nc2ncccc2-c2ncnc3[nH]cnc23)ccc1F [Example 74, 1-(4-Chloro-3-Trifluoromethylphenyl)-3-2-Fluoro-5-[3-(9H-Purin-6-Yl)Pyridin-2-Ylamino]Phenylurea]
Second: O=C(Nc1cc(Nc2ncccc2-c2ncnc3[nH]cnc23)ccc1F)c1ccc(Cl)c(C(F)(F)F)c1 [Example 61, 4-Chloro-N-2-Fluoro-5-[3-(9H-Purin-6-Yl)Pyridin-2-Ylamino)Phenyl-3-(Trifluoromethyl)Benzamide]
The IC50 of the first is 6.5-fold lower: 68 nM for the first, 439 nM for the second.

Compared with Cc1ccc(Nc2ncccc2-c2ncnc3[nH]cnc23)cc1NC(=O)c1cccc(C(F)(F)F)c1 [Example 68, N-2-Methyl-5-[3-(9H-Purin-6-Yl)Pyridin-2-Ylamino)Phenyl-3-Trifluoromethylbenzamide], O=C(Nc1ccc(Nc2ncccc2-c2ncnc3[nH]cnc23)cc1)c1cccc(C(F)(F)F)c1 [Example 79, N-4-[3-(9H-Purin-6-Yl)Pyridin-2-Ylamino]Phenyl-3-Trifluoromethylbenzamide] is higher in IC50: 6590 nM for the first, greater than 10000 nM for the second. The first is the more potent here.

Compared with COc1cc(OC(F)(F)F)cc(C(=O)Nc2cc(Nc3ncccc3-c3ncnc4[nH]cnc34)ccc2F)c1 [Example 140, N-5-[(3-(9H-purin-6-yl)pyridin-2-yl)amino]-2-fluorophenyl-3-methoxy-5-(trifluoromethoxy)benzamide], COc1cc(OC)cc(C(=O)Nc2cc(Nc3ncccc3-c3ncnc4[nH]cnc34)ccc2F)c1 [Example 132, N-5-[(3-(9H-purin-6-yl)pyridin-2-yl)amino]-2-fluorophenyl-3,5-dimethoxybenzamide] is 2-fold higher in IC50: 294 nM for the first, 585 nM for the second.

Going from COc1ccc(C(=O)Nc2cc(Nc3ncccc3-c3ncnc4[nH]cnc34)ccc2F)cc1OC(F)(F)F [Example 150, N-5-[(3-(9H-purin-6-yl)pyridin-2-yl)amino]-2-fluorophenyl-4-methoxy-3-(trifluoromethoxy)benzamide] to Cc1ccc(C(=O)Nc2cc(Nc3ncccc3-c3ncnc4[nH]cnc34)ccc2F)cc1C(F)(F)F [Example 138, N-5-[(3-(9H-purin-6-yl)pyridin-2-yl)amino]-2-fluorophenyl-4-methyl-3-(trifluoromethyl)benzamide], the IC50 rises from 250 nM to 403 nM (1.6-fold).

Going from O=C(Nc1cc(Nc2ncccc2-c2ncnc3[nH]cnc23)ccc1F)c1cccc(F)c1 [Example 113, N-5-[(3-(9H-Purin-6-Yl)Pyridin-2-Yl)Amino]-2-Fluorophenyl-3-Fluorobenzamide] to CSc1cccc(C(=O)Nc2cc(Nc3ncccc3-c3ncnc4[nH]cnc34)ccc2F)c1 [Example 125, N-5-[(3-(9H-purin-6-yl)pyridin-2-yl)amino]-2-fluorophenyl-3-(methylthio)benzamide], the IC50 falls from 1480 nM to 767 nM (1.9-fold).

Compared with Cc1cccc(C(=O)Nc2cc(Nc3ncccc3-c3ncnc4[nH]cnc34)ccc2F)n1 [Example 64, N-2-Fluoro-5-[3-(9H-Purin-6-Yl)Pyridin-2-Ylamino)Phenyl-(6-Methylpyridin-2-Yl)Benzamide], O=C(Nc1cc(Nc2ncccc2-c2ncnc3[nH]cnc23)ccc1F)c1cc(C(F)(F)F)ccc1F [Example 120, N-5-[(3-(9H-purin-6-yl)pyridin-2-yl)amino]-2-fluorophenyl-2-fluoro-5-(trifluoromethyl)benzamide] is 11-fold higher in IC50: 300 nM for the first, 3380 nM for the second. The first is the more potent here.

Going from O=C(Nc1cc(Nc2ncccc2-c2ncnc3[nH]ccc23)ccc1F)c1cc(F)cc(C(F)(F)F)c1 [Example 88, 3-Fluoro-N-2-Fluoro-5-[3-(7H-Pyrrolo[2,3-d]Pyrimidin-4-Yl)Pyridin-2-Ylamino]Phenyl-5-Trifluoromethyl Benzamide] to O=C(Nc1cc(Nc2ncccc2-c2ncnc3[nH]cnc23)ccc1F)c1cc(C(F)(F)F)ccc1C(F)(F)F [Example 130, N-5-[(3-(9H-purin-6-yl)pyridin-2-yl)amino]-2-fluorophenyl-2,5-bis(trifluoromethyl)benzamide], the IC50 rises from 609 nM to 1050 nM (1.7-fold).

First: O=C(Nc1ccc(F)c(Nc2ncccc2-c2ncnc3[nH]cnc23)c1F)c1ccc(Cl)c(C(F)(F)F)c1 [Example 16, N-(3-(3-(9H-purin-6-yl)pyridin-2-ylamino)-2,4-difluorophenyl)-4-chloro-3-(trifluoromethyl)benzamide]
Second: O=C(Nc1ccc(F)c(Nc2ncccc2-c2ncnc3[nH]cnc23)c1F)c1ccc(C(F)(F)F)cc1 [Example 27, N-(3-(3-(9H-purin-6-yl)pyridin-2-ylamino)-2,4-difluorophenyl)-4-(trifluoromethyl)benzamide]
The IC50 of the first is lower: 2780 nM for the first, greater than 10000 nM for the second. The first is the more potent here.

Going from N#CC1(c2cccc(C(=O)Nc3ccc(F)c(Nc4ncccc4-c4ncnc5[nH]cnc45)c3F)c2)CC1 [Example 20, N-(3-(3-(9H-purin-6-yl)pyridin-2-ylamino)-2,4-difluorophenyl)-3-(1-cyanocyclopropyl)benzamide] to COc1cccc(C(=O)Nc2ccc(F)c(Nc3ncccc3-c3ncnc4[nH]cnc34)c2F)c1 [Example 35, N-(3-(3-(9H-Purin-6-Yl)Pyridin-2-Ylamino)-2,4-Difluorophenyl)-3-Methoxybenzamide], the IC50 rises from 2600 nM to greater than 10000 nM.

First: CC(C)(C#N)c1cccc(C(=O)Nc2cccc(Nc3ncccc3-c3ncnc4[nH]ccc34)c2F)c1 [Example 86, N-(3-(3-(7H-Pyrrolo[2,3-d]Pyrimidin-4-Yl)Pyridin-2-Ylamino)-2-Fluorophenyl)-3-(2-Cyanopopan-2-Yl)Benzamide]
Second: CC(C)(C#N)c1cccc(C(=O)Nc2cccc(Nc3ncccc3-c3ncnc4[nH]cnc34)c2F)c1 [Example 29, N-(3-(3-(9H-purin-6-yl)pyridin-2-ylamino)-2-fluorophenyl)-3-(2-cyanopropan-2-yl)benzamide]
The IC50 of the first is higher: greater than 10000 nM for the first, 978 nM for the second. The second is the more potent here.

CC(C)(C(N)=O)c1cccc(C(=O)Nc2ccc(F)c(Nc3ncccc3-c3ncnc4[nH]cnc34)c2F)c1 [Example 22, N-(3-(3-(9H-purin-6-yl)pyridin-2-ylamino)-2,4-difluorophenyl)-3-(1-amino-2-methyl-1-oxopropan-2-yl)benzamide] and O=C(Nc1ccc(F)c(Nc2ncccc2-c2ncnc3[nH]cnc23)c1F)c1cccc([N+](=O)[O-])c1 [Example 34, N-(3-(3-(9H-Purin-6-Yl)Pyridin-2-Ylamino)-2,4-Difluorophenyl)-3-Nitrobenzamide] cannot be ordered by IC50: greater than 10000 nM for the first, greater than 10000 nM for the second.

O=C(Nc1cc(Nc2ncccc2-c2ncnc3[nH]cnc23)ccc1F)c1ccnc(C(F)(F)F)c1F [Example 148, N-5-[(3-(9H-purin-6-yl)pyridin-2-yl)amino]-2-fluorophenyl-3-fluoro-2-(trifluoromethyl)isonicotinamide] and O=C(Nc1ccc(F)c(Nc2ncccc2-c2ncnc3[nH]cnc23)c1F)c1cc(C(F)(F)F)cc(C(F)(F)F)c1 [Example 58, N-2,4-Difluoro-3-[3-(9H-Purin-6-Yl)Pyridin-2-Ylamino)-Phenyl-3,5-Bistrifluoromethylbenzamide] are within 1.5-fold of each other in IC50: 529 nM for the first, 407 nM for the second.

Compared with O=C(Nc1ccc(F)c(Nc2ncccc2-c2ncnc3[nH]cnc23)c1F)c1cc(N2CCC(O)CC2)cc(C(F)(F)F)c1 [Example 12, N-(3-(3-(9H-purin-6-yl)pyridin-2-ylamino)-2,4-difluorophenyl)-3-(4-hydroxypiperidin-1-yl)-5-(trifluoromethyl)benzamide], O=C(Nc1ccc(F)c(Nc2ncccc2-c2ncnc3[nH]cnc23)c1F)c1cc(N2CCOCC2)cc(C(F)(F)F)c1 [Example 18, N-(3-(3-(9H-purin-6-yl)pyridin-2-ylamino)-2,4-difluorophenyl)-3-morpholino-5-(trifluoromethyl)benzamide] is 3-fold higher in IC50: 1020 nM for the first, 3020 nM for the second. The first is the more potent here.

Going from CC(C)(C#N)c1cccc(C(=O)Nc2ccc(F)c(Nc3ncccc3-c3ncnc4[nH]cnc34)c2F)c1Cl [Example 42, N-(3-(3-(9H-Purin-6-Yl)Pyridin-2-Ylamino)-2,4-Difluorophenyl)-2-Chloro-3-(2-Cyanopropan-2-Yl)Benzamide] to CC(C)(C#N)c1cccc(NC(=O)c2cc(Nc3ncccc3-c3ncnc4[nH]cnc34)ccc2F)c1 [Example 112, 5-[3-(9H-Purin-6-Yl)Amino]-N-[3-(2-Cyanopropan-2-Yl)Phenyl]-2-Fluorobenzamide], the IC50 rises from 1330 nM to greater than 10000 nM.

Going from O=C(Nc1ccc(F)c(Nc2ncccc2-c2ncnc3[nH]cnc23)c1F)c1ccc(N2CCCC2)c(C(F)(F)F)c1 [Example 19, N-(3-(3-(9H-purin-6-yl)pyridin-2-ylamino)-2,4-difluorophenyl)-4-(pyrrolidin-1-yl)-3-(trifluoromethyl)benzamide] to O=C(Nc1ccc(F)c(Nc2ncccc2-c2ncnc3[nH]cnc23)c1F)c1cnccn1 [Example 56, N-(3-(3-(9H-Purin-6-Yl)Pyridin-2-Ylamino)-2,4-Difluorophenyl)Pyrazine-2-Carboxamide], the IC50 rises from 939 nM to greater than 10000 nM.
